Measured values: patent EP1200395B1, “UREA DERIVATIVES AS INHIBITORS OF CCR-3 RECEPTOR” (KIRIN BEER KABUSHIKI KAISHA, priority 1999, dated 2001)

Legend:
CCR-3 [1] = biological target: T1, CCR-3 (Homo sapiens, UniProt P51677); assay: Eotaxin-induced chemotaxis of CCR-3 transfectant cells (CCR3/U937); assay type: cell-based; set-up: expressed in transfected cells; host or cells: U937; settings: 6.25 µg/ml test compound; eotaxin 1 x 10^-9 M; CCR3/U937 cells (Table 3b)
T1 sequence (P51677 1-355): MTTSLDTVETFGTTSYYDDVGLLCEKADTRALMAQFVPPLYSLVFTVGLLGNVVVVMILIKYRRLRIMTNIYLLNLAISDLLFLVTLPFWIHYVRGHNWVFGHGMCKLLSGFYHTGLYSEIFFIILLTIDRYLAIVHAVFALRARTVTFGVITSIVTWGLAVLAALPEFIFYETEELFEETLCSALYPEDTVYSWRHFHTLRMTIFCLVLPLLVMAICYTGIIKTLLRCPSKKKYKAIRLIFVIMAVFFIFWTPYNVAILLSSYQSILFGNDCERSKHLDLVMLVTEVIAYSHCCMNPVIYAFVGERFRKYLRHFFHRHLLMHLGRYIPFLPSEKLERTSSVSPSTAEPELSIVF

CCR-3 [2] = biological target: T1, CCR-3; assay: Calcium mobilization assay (inhibition of eotaxin-induced intracellular calcium mobilization in CCR3/HEK293 cells); assay type: cell-based; set-up: expressed in transfected cells; settings: eotaxin 10 nM; for Ca^2+ mobilization 6.25 µg/ml (inhibition %): 6.25 µg/ml test compound, CCR3/HEK293 cells (Table 2a); for Ca^2+ mobilization 1.25 µg/ml (inhibition %): 1.25 µg/ml test compound, CCR3/HEK293 cells (Table 2b)
Procedure: Compounds 93-162 used in this assay were synthesized by using the method described in Example 6.
CCR-3 transfectant cells (CCR3/HEK293) were isolated and resuspended with assay buffer (20 mM HEPES, 125 mM NaCl, 5 mM KCl; 0.5 mM glucose, 1 mM CaCl2, 1 mM MgCl2, 0.1 % BSA). After washing CCR3/HEK293 cells with assay buffer, cells were loaded with Fura-2/AM in assay buffer for 1 hour at room temperature. Cells were washed and resuspended with assay buffer at 5 x 10^6 cells/ml in assay buffer, and placed in a tissue culture plate (Falcon, no. 3296). Test compounds dissolved in DMSO were added to the wells, followed by eotaxin (10 nM at final concentration). Cells were excited at 340 nm and 380 nm in a fluorimeter (ARGUS50, FDSS2000, Hamamatsu Photonics) and the relative ratio of the fluorescence emitted at 510 nm was recorded. For a control, DMSO without a test compound was added. Intracellular calcium mobilization was calculated as described in Krogel C. et al. , FEBS Let. (1989) 243 , 41-46.

Row | Compound | CCR-3 Transfectant Chemotaxis Assay 6.25 µg/ml (inhibition %) (CCR-3 [1]) | Ca^2+ mobilization 6.25 µg/ml (inhibition %) (CCR-3 [2]) | Ca^2+ mobilization 1.25 µg/ml (inhibition %) (CCR-3 [2])
1 | CC(C)CN(CCCNC(=O)Nc1ccc(Br)cc1)CCc1c[nH]cn1 [Compound 118] | 62% | 58% | 
2 | CC(C)CCN(CCCNC(=O)Nc1ccc(Br)cc1)CCc1c[nH]cn1 [Compound 119] | 65% | 62% | 
3 | O=C(NCCCN(CCOCc1ccccc1)CCc1c[nH]cn1)Nc1ccc(Br)cc1 [Compound 121] | 64% | 52% | 
4 | CC(C)CN(CCCNC(=O)Nc1ccc(Br)cc1)C1CCCc2ccccc21 (stereo not drawn) [Compound 122] | 92% | 66% | 
5 | CCOC(=O)C1CC1CN(CCCNC(=O)Nc1ccc(Br)cc1)C1CCCc2ccccc21 (stereo not drawn) [Compound 125] | 90% | 65% | 
6 | Cc1ccc(CCN(CCCNC(=O)Nc2ccc(Br)cc2)CCCC(=O)O)cc1 [Compound 132] | 11% | 55% | 
7 | O=C(O)CCCN(CCCNC(=O)Nc1ccc(Br)cc1)CCc1ccc(Cl)c(Cl)c1 [Compound 133] | 21% | 63% | 
8 | CCOC(=O)C1CC1CN(CCCNC(=O)Nc1cccc(C)c1)CCc1ccccc1 (stereo not drawn) [Compound 138] | 31% | 56% | 
9 | CCOC(=O)C1CC1CN(CCCNC(=O)Nc1cccc(Cl)c1)C1CCCc2ccccc21 (stereo not drawn) [Compound 149] | 31% | 56% | 
10 | CCOC(=O)C1CC1CN(CCCNC(=O)Nc1cccc(Cl)c1)CCc1ccc(Cl)c(Cl)c1 (stereo not drawn) [Compound 155] | 56% | 69% | 
11 | C=C(C)C[N+](CC)(CCCNC(=O)Nc1ccc(OC)cc1)CCc1ccc(Cl)cc1.[I-] (stereo not drawn) [compound 444] |  |  | 72%
12 | C=C(C)C[N+](CC)(CCCNC(=O)Nc1ccc(OC)cc1)CCc1cccc(Cl)c1.[I-] (stereo not drawn) [compound 445] |  |  | 63%
13 | C=C(C)C[N+](CC)(CCCNC(=O)Nc1ccc(OC)cc1)CCc1ccc(Cl)cc1Cl.[I-] (stereo not drawn) [compound 446] |  |  | 76%
14 | C=C(C)C[N+](CC)(CCCNC(=O)Nc1ccc(OC)cc1)CCc1ccc(Cl)c(Cl)c1.[I-] (stereo not drawn) [compound 447] |  |  | 65%

Continued, values first:

Row | CCR-3 Transfectant Chemotaxis Assay 6.25 µg/ml (inhibition %) (CCR-3 [1]) | Ca^2+ mobilization 6.25 µg/ml (inhibition %) (CCR-3 [2]) | Ca^2+ mobilization 1.25 µg/ml (inhibition %) (CCR-3 [2]) | Compound
15 | 21% | 57% |  | O=C(O)CCCN(CCCNC(=O)Nc1ccc(Cl)c(C(F)(F)F)c1)CCC(c1ccccc1)c1ccccc1 [Compound 97]
16 | 47% | . 53% |  | CC(C)CCN(CCCNC(=O)Nc1ccccc1-c1ccccc1)Cc1ccc2c(c1)OCO2 [Compound 99]
17 | 54% | 53% |  | CSCCCN(CCCNC(=O)Nc1ccccc1-c1ccccc1)Cc1ccc2c(c1)OCO2 [Compound 100]
18 | 19% | 63% |  | O=C(NCCCN(Cc1ccc2c(c1)OCO2)C[C@@H]1CCCN1)Nc1ccccc1-c1ccccc1 [Compound 102]
19 | 47% | 57% |  | COC(=O)CCCN(CCCNC(=O)Nc1ccccc1-c1ccccc1)CCc1ccccc1 [Compound 106]
20 | 55% | 53% |  | O=C(NCCCN(CCc1ccccc1)C[C@@H]1CCCN1)Nc1ccccc1-c1ccccc1 [Compound 107]
21 | 23% | 61% |  | COc1ccc(CCN(CCCNC(=O)Nc2ccccc2-c2ccccc2)CC(C)C)cc1OC [Compound 108]
22 | 12% | 51% |  | CCOC(=O)C1CC1CN(CCCNC(=O)Nc1ccccc1-c1ccccc1)CCc1ccc(OC)c(OC)c1 (stereo not drawn) [Compound 109]
23 | 32% | 57% |  | COc1ccc(CCN(CCCNC(=O)Nc2ccccc2-c2ccccc2)C[C@@H]2CCCN2)cc1OC [Compound 110]
24 | 44% | 51% |  | Cc1ccc(CCN(CCCNC(=O)Nc2ccccc2-c2ccccc2)CC(C)C)cc1 [Compound 111]
25 | 26% | 52% |  | CCOC(=O)C1CC1CN(CCCNC(=O)Nc1ccccc1-c1ccccc1)CCc1ccc(C)cc1 (stereo not drawn) [Compound 112]
26 | 66% | 51% |  | CC(C)CN(CCCNC(=O)Nc1ccccc1-c1ccccc1)CCc1ccc(Cl)c(Cl)c1 [Compound 113]
27 | 22% | 51% |  | O=C(NCCCN(CCc1ccccc1)CCc1ccc(Cl)c(Cl)c1)Nc1ccccc1-c1ccccc1 [Compound 114]
28 | 62% | 57% |  | CCOC(=O)C1CC1CN(CCCNC(=O)Nc1ccccc1-c1ccccc1)CCc1ccc(Cl)c(Cl)c1 (stereo not drawn) [Compound 115]
29 | 82% | 68% |  | O=C(NCCCN(CCc1ccc(Cl)c(Cl)c1)C[C@@H]1CCCN1)Nc1ccccc1-c1ccccc1 [Compound 116]
30 | 34% | 57% |  | O=C(NCCCN(CCc1ccccc1)CCc1c[nH]cn1)Nc1ccc(Br)cc1 [Compound 120]
31 | 54% | 54% |  | CC(C)CN(CCCNC(=O)Nc1ccc(Br)cc1)Cc1ccc2c(c1)OCO2 [Compound 126]
32 | 33% | 55% |  | O=C(NCCCN(Cc1ccc2c(c1)OCO2)C[C@@H]1CCCN1)Nc1ccc(Br)cc1 [Compound 128]
33 | 12% | 57% |  | Cc1cccc(NC(=O)NCCCN(C[C@@H]2CCCN2)C2CCCc3ccccc32)c1 (stereo partly drawn) [Compound 135]
34 | 32% | 63% |  | Cc1cccc(NC(=O)NCCCN(Cc2ccc3c(c2)OCO3)CC(C)C)c1 [Compound 136]
35 | 40% | 50% |  | CCN(CCCNC(=O)Nc1cccc(C)c1)CCc1ccccc1 [Compound 137]
